# Key:
# [1] = system: SCC25; assay: Cell cycle analysis by DNA profile FACS, SCC25; format: cell-based, human; conditions: 24 hours
# Procedure: In particular, Table 1 provides additional cell cycle distribution data of OSCC cells (%) treated with 0 μM, 30 μM, 60 μM, or 90 μM CPZ for 24 hours. Data for OSCC cell lines HSC3, SCC4, and SCC25 are also provided in diagrams of FIGS. 1G-1, 1G-2, and 1G-3, respectively.
# [2] = system: SCC4; assay: Additional cell proliferation assay, SCC4; format: cell-based, human; conditions: SCC4, 24 hour treatment
# Text: (§1) Observed reductions in cell proliferation in these additional in vitro studies are as follows: SCC4, 40%; HSC3, 50%; SCC25, 80%; Cal27, 15%; MDA231, 56%; and LnCap, 37%.
# [3] = system: Cal27; assay: Additional cell proliferation assay, Cal27; format: cell-based, human; conditions: Cal27, 24 hour treatment
# Text: as §1
# [4] = system: breast cancer cell line MDA231; assay: Additional cell proliferation assay, MDA231; format: cell-based, human; conditions: MDA231, 24 hour treatment
# Text: as §1
# [5] = system: MDA231 breast cancer cells; assay: Cell viability assay of MDA231 cells with and without NAC; format: cell-based, human; conditions: 24 h
# [6] = system: OSCC cell lines; assay: ROS assays by flow cytometry (DCF-DA); format: cell-based, human; conditions: 30 μM capsazepine, 1 h
# Procedure: FIGS. 1I-1 to 1I-3. Reactive oxygen species (ROS) assays. The level of ROS in OSCC cell lines was examined by flow cytometry using 2,7-dichlorodihydrofluorescein diacetate (DCFH-DA; Sigma). Approximately 3×10^5 cells were plated in 12-well plates. To detect ROS, cells were incubated for 30 min at 37° C. with DCF-DA, washed and then treated for 1 h with 30 μM capsazepine (grey, thick line), 150 μM capsaicin (grey, thin line), 30 μM capsazepine+150 μM capsaicin (black line), or vehicle control (dotted line). The cells were harvested, washed twice, and analyzed by flow cytometry.
# FIGS. 1I-4(a)-(b) to 1I-6(a)-(b). Induction of ROS in OSCC cell lines. (a). ROS induction in OSCC cell lines following 1 h treatment with 30 μM CPZ (black line) compared to vehicle control. (b). ROS induction in OSCC cell lines following 1 h treatment with 30 μM CPZ is reversed by NAC co-treatment (black line) as indicated in the shift in their peaks to the left.
# ROS levels in OSCC cell lines were examined by flow cytometry using 2,7-dichlorodihydrofluorescein diacetate (DCF-DA; Sigma-Aldrich, St. Louis, Mo.). Cells (3×10^5) were plated in 12-well plates and incubated for 30 min with DCF-DA at 37° C. then treated with 30 μM capsazepine using phenol free media with and without 10 mM NAC. Treated cells were incubated for 1 h at 37° C., harvested, washed twice, and analyzed by FACS.
# [7] = Liver and kidney function tests of tumor bearing mice; format: in vivo; conditions: 40 μg CPZ intra-tumoral every other day over 14 days
# Procedure: FIG. 14. Liver and kidney function tests of tumor bearing mice following two week treatment with either vehicle control (Control) or 40 μg CPZ in 40 μl Veh medium (1 μg/μl) injected directly into tumor every other day over 14 days (CPZ).
# Treatments. CPZ (5 mg) was diluted in 250 μl of 100% DMSO to yield a final concentration of 20 μg/μl of stock solution. Stock solution (100 m) was subsequently diluted in 7% DMSO in sterile saline generating a final concentration of 1 μg/μl. A total of 40 μg in 40 μl was injected intra-tumorally. Control xenografts were injected intra-tumorally with 40 μl of vehicle control (7% DMSO). Mice were monitored daily for tumor growth, cachexia, and weight loss. Tumor volumes and body weight were recorded every other day. Tumor volumes were calculated by the formula: (4π/3)×(w/2)2×(l/2), where w=width and l=length. Measurements were made using a digital caliper. […]
# At the conclusion of the experiment, serum was collected for liver and kidney function analysis. […] Tumors were analyzed histologically using H&E (hematoxylin and eosin) and TUNEL (terminal deoxyribonucleotidyl transferase-mediated dUTP nick end labeling) staining for detection of DNA fragmentation associated with apoptosis, and apoptotic figures were quantified. […]
# [8] = system: OSCC xenografts; assay: TUNEL staining of OSCC xenografts; format: in vivo, mice; conditions: CPZ treated xenografts, p<0.001
# Procedure: FIG. 15A-15C. TUNEL staining of OSCC xenografts. FIG. 15A: Representative photomicrograph of TUNEL stain of HSC3 xenograft (10×) treated with vehicle control. […] FIG. 15B: Number of apoptotic figures per field in vehicle and 40 μg capsazepine (CPZ) treated SCC4 xenografts. FIG. 15C: Number of apoptotic figures per field in vehicle and CPZ (20 m) treated SCC25 xenografts. Student's T-Test of the average of six fields with n=3; ***p<0.001.
# At the conclusion of the experiment, serum was collected for liver and kidney function analysis. […] Tumors were analyzed histologically using H&E (hematoxylin and eosin) and TUNEL (terminal deoxyribonucleotidyl transferase-mediated dUTP nick end labeling) staining for detection of DNA fragmentation associated with apoptosis, and apoptotic figures were quantified. [FIGS. 15-1 to 15-3] […] Therefore, CPZ empirically has shown promise for being a well-tolerated treatment for OSCC.
# [9] = system: voltage-activated calcium channels; conditions: cited from earlier work
# [10] = system: immortalized human bronchiolar epithelial cell line transformed with a TRPV1 insert; conditions: TRPV1-overexpressing cultured cells; cited from earlier work
structure (smiles),measurement,setting,value
"Oc1cc2c(cc1O)CN(C(=S)NCCc1ccc(Cl)cc1)CCC2 [CPZ, 2-[2-(4-chlorphenyl)ethylamino-thiocarbonyl]-7,8-dihydroxy-2,3,4,5-tetrahydro-1H-2-benzazepine]",G0/G1,"[1]; SCC25, CPZ 30 μM",42.92%
same,G2/M,"[1]; SCC25, CPZ 30 μM",3.3%
same,S,"[1]; SCC25, CPZ 30 μM",9.01%
same,SubG1,"[1]; SCC25, CPZ 30 μM",44.77%
same,G0/G1,"[1]; SCC25, CPZ 60 μM",28.63%
same,G2/M,"[1]; SCC25, CPZ 60 μM",6.11%
same,S,"[1]; SCC25, CPZ 60 μM",14.78%
same,SubG1,"[1]; SCC25, CPZ 60 μM",50.48%
same,G0/G1,"[1]; SCC25, CPZ 90 μM",17.23%
same,G2/M,"[1]; SCC25, CPZ 90 μM",2.5%
same,S,"[1]; SCC25, CPZ 90 μM",10.36%
same,SubG1,"[1]; SCC25, CPZ 90 μM",69.91%
same,reduction in cell proliferation,[2],40%
same,reduction in cell proliferation,[3],15%
same,reduction in cell proliferation,[4],56%
same,cytotoxicity,[5],significant dose dependent cytotoxicity
same,level of ROS,[6],increase in ROS
same,liver and kidney function,[7],No negative effects on liver or kidney function were detected
same,apoptotic figures in treated tumors (TUNEL),[8],significant increase in apoptotic figures
same,effect on voltage-activated calcium channels,[9],Inhibitis
same,reversal of CAP-induced apoptosis by CPZ,[10],failed to reverse these effects

# Source: US9642859B2, “Use of capsazepine and analogs thereof to treat cancer” (THE BOARD OF REGENTS OF THE UNIVERSITY OF TEXAS SYSTEM, priority 2012, dated 2017)
